Data as given in patent US20250170099A1, “TREATMENT OF POSTNATAL DEPRESSION” (GH RESEARCH IRELAND LIMITED, priority 2022, published 2025).

System: patients with postpartum depression (PPD)
Assay: Open-label clinical trial of inhaled 5-MeO-DMT in postpartum depression (one patient, IDR 6 mg then 12 mg)
Method: The single-arm, open-label clinical trial will involve 15 adult female patients with clinically diagnosed postpartum depression (PPD).
The second dose (12 mg) will only be administered if: • a. […] The 6 mg dose was safe and well-tolerated according to the investigator, • c. Any psychoactive effects (PsE) of the prior dose have subsided, and • d. Pre-dose vital parameters and forced expiratory volume in one second (FEV1) are in normal range, or if outside of the normal range, are not clinically significant according to the investigator. • 3. Similarly, a third dose (18 mg) will only be administered if: • a. […] The 12 mg dose was safe and well-tolerated according to the investigator, and • c. Any PsE of the prior dose have subsided, and • d. Pre-dose vital parameters and forced expiratory volume in one second (FEV1) are in normal range, or if outside of the normal range, are not clinically significant according to the investigator.
The patients will be assessed for a peak psychedelic experience (based on a patient-scored visual analogue scale, the PE scale), sedation, and other endpoints after dosing. Follow-up visits are planned for Day 1, and Day 7 after the dosing day.

COc1ccc2[nH]cc(CCN(C)C)c2c1 [5-MeO-DMT]
MADRS apparent sadness improvement (2 hr): 5
MADRS apparent sadness score (2 hr): 0
MADRS concentration difficulties improvement (2 hr): 0
MADRS concentration difficulties score (2 hr): 0
MADRS inability to feel improvement (2 hr): 3
MADRS inability to feel score (2 hr): 0
MADRS inner tension improvement (2 hr): 5
MADRS inner tension score (2 hr): 0
MADRS lassitude improvement (2 hr): 3
MADRS lassitude score (2 hr): 0
MADRS pessimistic thoughts improvement (2 hr): 4
MADRS pessimistic thoughts score (2 hr): 0
MADRS reduced appetite improvement (2 hr): 0
MADRS reduced appetite score (2 hr): 0
MADRS reduced sleep improvement (2 hr): 0
MADRS reduced sleep score (2 hr): 5
MADRS reported sadness improvement (2 hr): 4
MADRS reported sadness score (2 hr): 0
MADRS suicidal thoughts improvement (2 hr): 0
MADRS suicidal thoughts score (2 hr): 0
adverse events (abdominal pain, headache) (Day 0): mild, short-lasting and resolved spontaneously
BPRS anxiety improvement (Day 1): 6
BPRS anxiety score (Day 1): 1
BPRS blunted affect improvement (Day 1): 0
BPRS blunted affect score (Day 1): 1
BPRS conceptual disorganization improvement (Day 1): 0
BPRS conceptual disorganization score (Day 1): 1
BPRS depressive mood improvement (Day 1): 5
BPRS depressive mood score (Day 1): 1
BPRS disorientation improvement (Day 1): 0
BPRS disorientation score (Day 1): 1
BPRS emotional withdrawal improvement (Day 1): 4
BPRS emotional withdrawal score (Day 1): 1
BPRS excitement improvement (Day 1): 1
BPRS excitement score (Day 1): 1
BPRS grandiosity improvement (Day 1): 0
BPRS grandiosity score (Day 1): 1
BPRS guilt feelings improvement (Day 1): 5
BPRS guilt feelings score (Day 1): 1
BPRS hallucinatory behaviour improvement (Day 1): 0
BPRS hallucinatory behaviour score (Day 1): 1
BPRS hostility improvement (Day 1): 0
BPRS hostility score (Day 1): 1
BPRS mannerisms and posturing improvement (Day 1): 0
BPRS mannerisms and posturing score (Day 1): 1
BPRS motor retardation improvement (Day 1): 0
BPRS motor retardation score (Day 1): 1
BPRS somatic concern improvement (Day 1): 5
BPRS somatic concern score (Day 1): 1
BPRS suspiciousness improvement (Day 1): 0
BPRS suspiciousness score (Day 1): 1
BPRS tension score (Day 1): 1
BPRS uncooperativeness improvement (Day 1): 0
BPRS uncooperativeness score (Day 1): 1
BPRS unusual thought content improvement (Day 1): 0
BPRS unusual thought content score (Day 1): 1
MADRS apparent sadness improvement (Day 1): 5
MADRS apparent sadness score (Day 1): 0
MADRS concentration difficulties improvement (Day 1): 0
MADRS concentration difficulties score (Day 1): 0
MADRS inability to feel improvement (Day 1): 3
MADRS inability to feel score (Day 1): 0
MADRS inner tension improvement (Day 1): 5
MADRS inner tension score (Day 1): 0
MADRS lassitude improvement (Day 1): 3
MADRS lassitude score (Day 1): 0
MADRS pessimistic thoughts improvement (Day 1): 4
MADRS pessimistic thoughts score (Day 1): 0
MADRS reduced appetite improvement (Day 1): 0
MADRS reduced appetite score (Day 1): 0
MADRS reduced sleep improvement (Day 1): 5
MADRS reduced sleep score (Day 1): 0
MADRS reported sadness improvement (Day 1): 4
MADRS reported sadness score (Day 1): 0
MADRS suicidal thoughts improvement (Day 1): 0
MADRS suicidal thoughts score (Day 1): 0
BIMF functional domain Adjustment score (Day 7): 6
BIMF functional domain Infant Care score (Day 7): 12
BIMF functional domain Management score (Day 7): 33
BIMF functional domain Mother-Child Interaction score (Day 7): 17
BIMF functional domain Psychological Well-being score (Day 7): 53
BIMF functional domain Self-Care score (Day 7): 13
BIMF functional domain Social Support score (Day 7): 18
BIMF item 1 score (I am a good mother) (Day 7): 6
BIMF item 2 score (I feel rested) (Day 7): 2
BIMF item 3 score (I am comfortable with the way I've chosen to feed my baby) (Day 7): 6
BIMF item 4 score (My baby and I understand each other) (Day 7): 5
BIMF item 5 score (I am able to relax and enjoy time with my baby) (Day 7): 6
BIMF item 6 score (There are people in my life that I can trust to care for my baby) (Day 7): 6
BIMF item 8 score (I am getting enough adult interaction) (Day 7): 6
BIMF item 9 score (I am getting enough encouragement from other people) (Day 7): 6
BIMF item 10 score (I trust my own feelings (instincts)) (Day 7): 6
BIMF item 11 score (I take a little time each week to do something for myself) (Day 7): 6
BIMF item 12 score (I am taking good care of my baby's physical needs) (Day 7): 6
BIMF item 13 score (I am taking good care of my physical needs) (Day 7): 5
BIMF item 14 score (I make good descisions about my baby's health and well being) (Day 7): 6
BIMF item 15 score (My baby and I are getting into a routine) (Day 7): 6
BIMF item 16 score (I worry about how other people judge me) (Day 7): 5
BIMF item 17 score (I am able to take care of my baby and my other responsibilites) (Day 7): 5
BIMF item 18 score (Anxiety or worry often interferes with my mothering ability) (Day 7): 1
BIMF item 19 score (As time goes on, I am getting better at taking care of my baby) (Day 7): 1
BIMF item 20 score (I am satisfied with the job I am doing as a new mother) (Day 7): 5
BPRS anxiety improvement (Day 7): 6
BPRS anxiety score (Day 7): 1
BPRS blunted affect improvement (Day 7): 0
BPRS blunted affect score (Day 7): 1
BPRS conceptual disorganization improvement (Day 7): 0
BPRS conceptual disorganization score (Day 7): 1
BPRS depressive mood improvement (Day 7): 5
BPRS depressive mood score (Day 7): 1
BPRS disorientation improvement (Day 7): 0
BPRS disorientation score (Day 7): 1
BPRS emotional withdrawal improvement (Day 7): 4
BPRS emotional withdrawal score (Day 7): 1
BPRS excitement improvement (Day 7): 1
BPRS excitement score (Day 7): 1
BPRS grandiosity improvement (Day 7): 0
BPRS grandiosity score (Day 7): 1
BPRS guilt feelings improvement (Day 7): 5
BPRS guilt feelings score (Day 7): 1
BPRS hallucinatory behaviour improvement (Day 7): 0
BPRS hallucinatory behaviour score (Day 7): 1
BPRS hostility improvement (Day 7): 0
BPRS hostility score (Day 7): 1
BPRS mannerisms and posturing improvement (Day 7): 0
BPRS mannerisms and posturing score (Day 7): 1
BPRS motor retardation improvement (Day 7): 0
BPRS motor retardation score (Day 7): 1
BPRS somatic concern improvement (Day 7): 5
BPRS somatic concern score (Day 7): 1
BPRS suspiciousness improvement (Day 7): 0
BPRS suspiciousness score (Day 7): 1
BPRS tension improvement (Day 7): 5
BPRS tension score (Day 7): 1
BPRS uncooperativeness improvement (Day 7): 0
BPRS uncooperativeness score (Day 7): 1
BPRS unusual thought content improvement (Day 7): 0
BPRS unusual thought content score (Day 7): 1
MADRS apparent sadness improvement (Day 7): 5
MADRS apparent sadness score (Day 7): 0
MADRS concentration difficulties improvement (Day 7): 0
MADRS concentration difficulties score (Day 7): 0
MADRS inability to feel improvement (Day 7): 3
MADRS inability to feel score (Day 7): 0
MADRS inner tension improvement (Day 7): 4
MADRS inner tension score (Day 7): 1
MADRS lassitude improvement (Day 7): 3
MADRS lassitude score (Day 7): 0
MADRS pessimistic thoughts improvement (Day 7): 4
MADRS pessimistic thoughts score (Day 7): 0
MADRS reduced appetite improvement (Day 7): 0
MADRS reduced appetite score (Day 7): 0
MADRS reduced sleep improvement (Day 7): 5
MADRS reduced sleep score (Day 7): 0
MADRS reported sadness improvement (Day 7): 4
MADRS reported sadness score (Day 7): 0
MADRS suicidal thoughts improvement (Day 7): 0
MADRS suicidal thoughts score (Day 7): 0
BIMF Adjustment % improvement (Day 7 vs Day 0): 20.00%
BIMF Adjustment Δ (Day 7 vs Day 0): 1
BIMF Infant Care % improvement (Day 7 vs Day 0): 0.00%
BIMF Infant Care Δ (Day 7 vs Day 0): 0
BIMF Management % improvement (Day 7 vs Day 0): 18%
BIMF Management Δ (Day 7 vs Day 0): 5
BIMF Mother-Child Interaction Δ (Day 7 vs Day 0): 2
BIMF Psychological Well-being Δ (Day 7 vs Day 0): 9
BIMF Self-Care % improvement (Day 7 vs Day 0): 44%
BIMF Self-Care Δ (Day 7 vs Day 0): 4
BIMF Social Support Δ (Day 7 vs Day 0): 1
BIMF item 1 Δ (Day 7 vs Day 0): 0
BIMF item 2 Δ (Day 7 vs Day 0): 2
BIMF item 3 Δ (Day 7 vs Day 0): 0
BIMF item 4 Δ (Day 7 vs Day 0): 0
BIMF item 5 Δ (Day 7 vs Day 0): 1
BIMF item 6 Δ (Day 7 vs Day 0): 0
BIMF item 7 Δ (Day 7 vs Day 0): 0
BIMF item 8 Δ (Day 7 vs Day 0): 0
BIMF item 9 Δ (Day 7 vs Day 0): 1
BIMF item 10 Δ (Day 7 vs Day 0): 1
BIMF item 11 Δ (Day 7 vs Day 0): 1
BIMF item 12 Δ (Day 7 vs Day 0): 0
BIMF item 13 Δ (Day 7 vs Day 0): 1
BIMF item 14 Δ (Day 7 vs Day 0): 0
BIMF item 15 Δ (Day 7 vs Day 0): 1
BIMF item 16 Δ (Day 7 vs Day 0): 2
BIMF item 17 Δ (Day 7 vs Day 0): 0
BIMF item 18 Δ (Day 7 vs Day 0): 1
BIMF item 19 Δ (Day 7 vs Day 0): 1
BIMF item 20 Δ (Day 7 vs Day 0): −1
BIMF total score Δ (Day 7 vs Day 0): 13
time to clinical remission (after administration): ≤ 2 h
time to clinical response (after administration): ≤ 2 h
BPRS anxiety improvement (discharge): 6
BPRS anxiety score (discharge): 1
BPRS blunted affect improvement (discharge): 0
BPRS blunted affect score (discharge): 1
BPRS conceptual disorganization improvement (discharge): 0
BPRS conceptual disorganization score (discharge): 1
BPRS depressive mood improvement (discharge): 5
BPRS depressive mood score (discharge): 1
BPRS disorientation improvement (discharge): 0
BPRS disorientation score (discharge): 1
BPRS emotional withdrawal improvement (discharge): 4
BPRS emotional withdrawal score (discharge): 1
BPRS excitement improvement (discharge): 1
BPRS excitement score (discharge): 1
BPRS grandiosity improvement (discharge): 0
BPRS grandiosity score (discharge): 1
BPRS guilt feelings improvement (discharge): 5
BPRS guilt feelings score (discharge): 1
BPRS hallucinatory behaviour improvement (discharge): 0
BPRS hallucinatory behaviour score (discharge): 1
BPRS hostility improvement (discharge): 0
BPRS hostility score (discharge): 1
BPRS mannerisms and posturing improvement (discharge): 0
BPRS mannerisms and posturing score (discharge): 1
BPRS motor retardation improvement (discharge): 0
BPRS motor retardation score (discharge): 1
BPRS somatic concern improvement (discharge): 5
BPRS somatic concern score (discharge): 1
BPRS suspiciousness improvement (discharge): 0
BPRS suspiciousness score (discharge): 1
BPRS tension score (discharge): 1
BPRS uncooperativeness improvement (discharge): 0
BPRS uncooperativeness score (discharge): 1
BPRS unusual thought content improvement (discharge): 0
BPRS unusual thought content score (discharge): 1
vital parameters (shortly after administration): temporary, clinically non-relevant increase in heart rate and blood pressure
